US11596639B2, “Substituted indole Mcl-1 inhibitors” (Vanderbilt University, priority 2016, dated 2023)

Experiments:
Mcl-1 = Mcl-1 (Homo sapiens (Human), UniProt Q07820); test: TR-FRET binding assay, FITC-Bak peptide and MBP-tagged Mcl-1; conditions: read-out: Ki for Inhibition of Mcl-1 by TR-FRET assay
Procedure: Compounds are diluted in DMSO in a 16-point, semilog serial dilution scheme. […] The plate was mixed and incubated for 3 hours at room temperature. […] TR-FRET signal is plotted and IC50 and Ki values are calculated in the same manner as the fluorescence polarization anisotropy based competition assays.

[1] = system: H929 human cancer cell lines; test: Cellular viability / proliferation (Cell TiterGlo, 72 h); assay type: cell-based; conditions: Homo sapiens, NCI-H929, 72 h, read-out: GI50 on cellular proliferation of H929 human cancer cell lines, H929 cells, 72 h, Cell TiterGlo, 10% FBS
Outline: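 Plating is at 1,000 cells/well in 10% FBS medium; after 24 h, compound is added as a 2-fold series starting at 50 μM with under 1% DMSO.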

Sequence of Mcl-1 (Q07820 172-327): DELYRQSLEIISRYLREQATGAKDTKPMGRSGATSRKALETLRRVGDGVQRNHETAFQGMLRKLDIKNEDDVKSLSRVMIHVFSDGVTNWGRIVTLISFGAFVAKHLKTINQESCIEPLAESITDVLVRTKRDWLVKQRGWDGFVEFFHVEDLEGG

C=Cc1cccc(Cn2c(C(=O)O)cc3cc(C)cc(N4C[C@@H](C)n5c(c(CCCOc6cc(C)c(Cl)c(C)c6)c6ccc(Cl)c(-c7c(C)nn(C)c7C)c65)C4=O)c32)n1 [Example 517, (R)-7-(7-Chloro-10-(3-(4-chloro-3,5-dimethylphenoxy)propyl)-4-methyl-1-oxo-6-(1,3,5-trimethyl-1H-pyrazol-4-yl)-3,4-dihydropyrazino[1,2-a]indol-2(1H)-yl)-5-methyl-1-((6-vinylpyridin-2-yl)methyl)-1H-indole-2-carboxylic acid]
Ki (Mcl-1): 0.36 nM | GI50 [1]: 760 nM

Cc1cc(OCCCc2c3n(c4c(-c5c(C)nn(C)c5C)c(Cl)ccc24)[C@H](C)CN(c2cn(CC(=O)N4CCN(C)CC4)c4ccc(-c5ncn(C)n5)cc24)C3=O)cc(C)c1Cl [Example 546, (R)-7-Chloro-10-(3-(4-chloro-3,5-dimethylphenoxy)propyl)-4-methyl-2-(5-(1-methyl-1H-1,2,4-triazol-3-yl)-1-(2-(4-methylpiperazin-1-yl)-2-oxoethyl)-1H-indol-3-yl)-6-(1,3,5-trimethyl-1H-pyrazol-4-yl)-3,4-dihydropyrazino[1,2-a]indol-1(2H)-one]
Ki (Mcl-1): 0.38 nM | GI50 [1]: 420 nM

COc1ccc(N2C[C@@H](C)n3c(c(CCCOc4cc(C)c(Cl)c(C)c4)c4ccc(Cl)c(-c5c(C)nn(C)c5C)c43)C2=O)c2c1c(C(=O)O)cn2Cc1cc(C)ccn1 [Example 619, (R)-7-(7-chloro-10-(3-(4-chloro-3,5-dimethylphenoxy)propyl)-4-methyl-1-oxo-6-(1,3,5-trimethyl-1H-pyrazol-4-yl)-3,4-dihydropyrazino[1,2-a]indol-2(1H)-yl)-4-methoxy-1-((4-methylpyridin-2-yl)methyl)-1H-indole-3-carboxylic acid]
Ki (Mcl-1): 0.26 nM | GI50 [1]: 470 nM

Cc1cc(OCCCc2c3n(c4c(-c5c(C)nn(C)c5C)c(Cl)ccc24)[C@H](C)CN(c2cccc4c(C(=O)O)ccnc24)C3=O)cc(C)c1Cl [Example 661, (R)-8-(7-chloro-10-(3-(4-chloro-3,5-dimethylphenoxy)propyl)-4-methyl-1-oxo-6-(1,3,5-trimethyl-1H-pyrazol-4-yl)-3,4-dihydropyrazino[1,2-a]indol-2(1H)-yl)quinoline-4-carboxylic acid]
Ki (Mcl-1): 0.23 nM | GI50 [1]: 2400 nM

COCCOc1cc(N2C[C@@H](C)n3c(c(CCCOc4cc(C)c(Cl)c(C)c4)c4ccc(Cl)c(-c5c(C)nn(C)c5C)c43)C2=O)c2c(c1)c(C(=O)O)cn2CCOC [Example 656, (R)-7-(7-chloro-10-(3-(4-chloro-3,5-dimethylphenoxy)propyl)-4-methyl-1-oxo-6-(1,3,5-trimethyl-1H-pyrazol-4-yl)-3,4-dihydropyrazino[1,2-a]indol-2(1H)-yl)-5-(2-methoxyethoxy)-1-(2-methoxyethyl)-1H-indole-3-carboxylic acid]
Ki (Mcl-1): < 0.2 nM | GI50 [1]: 250 nM

Cc1cc(N2C[C@@H](C)n3c(c(CCCOc4cc(C)c(Cl)c(C)c4)c4ccc(Cl)c(-c5c(C)nn(C)c5C)c43)C2=O)c2c(c1)cc(C(=O)O)n2Cc1cc(C2=NCCO2)ccn1 [Example 600, (R)-7-(7-chloro-10-(3-(4-chloro-3,5-dimethylphenoxy)propyl)-4-methyl-1-oxo-6-(1,3,5-trimethyl-1H-pyrazol-4-yl)-3,4-dihydropyrazino[1,2-a]indol-2(1H)-yl)-1-((4-(4,5-dihydrooxazol-2-yl)pyridin-2-yl)methyl)-5-methyl-1H-indole-2-carboxylic acid]
Ki (Mcl-1): < 0.2 nM | GI50 [1]: 2500 nM

Cc1cc(OCCCc2c3n(c4c(-c5c(C)nn(C)c5C)c(Cl)ccc24)[C@H](C)CN(c2cc(COCC4COC4)cc4cc(C(=O)O)n(C)c24)C3=O)cc(C)c1Cl [Example 692, (R)-7-(7-chloro-10-(3-(4-chloro-3,5-dimethylphenoxy)propyl)-4-methyl-1-oxo-6-(1,3,5-trimethyl-1H-pyrazol-4-yl)-3,4-dihydropyrazino[1,2-a]indol-2(1H)-yl)-1-methyl-5-((oxetan-3-ylmethoxy)methyl)-1H-indole-2-carboxylic acid]
Ki (Mcl-1): < 0.2 nM | GI50 [1]: 390 nM

Cc1cccc(Cn2c(C(=O)O)cc3cc(OCCN(C)C)cc(N4C[C@@H](C)n5c(c(CCCOc6cc(C)c(Cl)c(C)c6)c6ccc(Cl)c(-c7c(C)ncnc7C)c65)C4=O)c32)n1 [Example 566, (R)-7-(7-chloro-10-(3-(4-chloro-3,5-dimethylphenoxy)propyl)-6-(4,6-dimethylpyrimidin-5-yl)-4-methyl-1-oxo-3,4-dihydropyrazino[1,2-a]indol-2(1H)-yl)-5-(2-(dimethylamino)ethoxy)-1-((6-methylpyridin-2-yl)methyl)-1H-indole-2-carboxylic acid]
Ki (Mcl-1): < 0.2 nM | GI50 [1]: 410 nM

Cc1cc(OCCCc2c3n(c4c(-c5c(C)nn(C)c5C)c(Cl)ccc24)[C@H](C)CN(c2cn(C)c4ccc(-n5ccnn5)cc24)C3=O)cc(C)c1Cl [Example 668, (R)-7-Chloro-10-(3-(4-chloro-3,5-dimethylphenoxy)propyl)-4-methyl-2-(1-methyl-5-(1H-1,2,3-triazol-1-yl)-1H-indol-3-yl)-6-(1,3,5-trimethyl-1H-pyrazol-4-yl)-3,4-dihydropyrazino[1,2-a]indol-1(2H)-one]
Ki (Mcl-1): 7.6 nM | GI50 [1]: 1500 nM

Cc1cc(OCCCc2c3n(c4c(-c5c(C)nn(C)c5C)c(Cl)ccc24)[C@H](C)CN(c2cn(C)c4ccc(-n5ccnn5)nc24)C3=O)cc(C)c1Cl [Example 659, (R)-7-Chloro-10-(3-(4-chloro-3,5-dimethylphenoxy)propyl)-4-methyl-2-(1-methyl-5-(1H-1,2,3-triazol-1-yl)-1H-pyrrolo[3,2-b]pyridin-3-yl)-6-(1,3,5-trimethyl-1H-pyrazol-4-yl)-3,4-dihydropyrazino[1,2-a]indol-1(2H)-one]
Ki (Mcl-1): 0.96 nM | GI50 [1]: 930 nM

COc1cc(N2C[C@@H](C)n3c(c(CCCOc4cc(C)c(Cl)c(C)c4)c4ccc(Cl)c(-c5c(C)ncnc5C)c43)C2=O)c2c(c1)cc(C(=O)O)n2Cc1cc(C)ccn1 [Example 565, (R)-7-(7-chloro-10-(3-(4-chloro-3,5-dimethylphenoxy)propyl)-6-(4,6-dimethylpyrimidin-5-yl)-4-methyl-1-oxo-3,4-dihydropyrazino[1,2-a]indol-2(1H)-yl)-5-methoxy-1-((4-methylpyridin-2-yl)methyl)-1H-indole-2-carboxylic acid]
Ki (Mcl-1): < 0.2 nM | GI50 [1]: < 200 nM

Cc1cc(OCCCc2c3n(c4c(-c5c(C)nn(C)c5C)c(Cl)ccc24)[C@H](C)CN(c2cn(C)c4ccc(-c5nc6c(C)cccn6n5)cc24)C3=O)cc(C)c1Cl [Example 698, (R)-7-Chloro-10-(3-(4-chloro-3,5-dimethylphenoxy)propyl)-4-methyl-2-(1-methyl-5-(8-methyl-[1,2,4]triazolo[1,5-a]pyridin-2-yl)-1H-indol-3-yl)-6-(1,3,5-trimethyl-1H-pyrazol-4-yl)-3,4-dihydropyrazino[1,2-a]indol-1(2H)-one]
Ki (Mcl-1): 1.8 nM | GI50 [1]: 620 nM

Cc1cc(N2C[C@@H](C)n3c(c(CCCOc4cc(C)c(Cl)c(C)c4)c4ccc(Cl)c(-c5c(C)nn(C)c5C)c43)C2=O)c2c(c1)cc(C(=O)O)n2Cc1cc(N2CCOCC2)ccn1 [Example 500, (R)-7-(7-chloro-10-(3-(4-chloro-3,5-dimethylphenoxy)propyl)-4-methyl-1-oxo-6-(1,3,5-trimethyl-1H-pyrazol-4-yl)-3,4-dihydropyrazino[1,2-a]indol-2(1H)-yl)-5-methyl-1-((4-morpholinopyridin-2-yl)methyl)-1H-indole-2-carboxylic acid]
Ki (Mcl-1): < 0.2 nM | GI50 [1]: 330 nM
